Assay results: US10815200B2, “18F—tagged inhibitors of prostate specific membrane antigen (PSMA) and their use as imaging agents for prostate cancer” (DEUTSCHES KREBSFORSCHUNGSZENTRUM, priority 2015, dated 2020)
Square brackets hold non-standard residues; d marks the D form. Peptide text beside a SMILES is read from it. * marks the point of attachment. X1 = O=C(O)CCC(NC(=O)NC(CCCCN*)C(=O)O)C(=O)O; 2Nal = N[CH](Cc1ccc2ccccc2c1)C(=O)O; Nicotinoyl(6-F) = O=C(c1ccc(F)nc1)*; 4Amb = NCc1ccc(C(=O)O)cc1

Tests used:
PSMA = molecular target: T1, PSMA (Homo sapiens, UniProt Q04609); assay: Competitive cell binding assay (binding affinity) on LNCaP cells against 68Ga-labeled [Glu-urea-Lys(Ahx)]2-HBED-CC; conditions: competition with 68Ga-labeled [Glu-urea-Lys(Ahx)]2-HBED-CC, non-radioactive reference compounds
T1 construct: host or cells: LNCaP cells
T1 sequence (Q04609 whole entry): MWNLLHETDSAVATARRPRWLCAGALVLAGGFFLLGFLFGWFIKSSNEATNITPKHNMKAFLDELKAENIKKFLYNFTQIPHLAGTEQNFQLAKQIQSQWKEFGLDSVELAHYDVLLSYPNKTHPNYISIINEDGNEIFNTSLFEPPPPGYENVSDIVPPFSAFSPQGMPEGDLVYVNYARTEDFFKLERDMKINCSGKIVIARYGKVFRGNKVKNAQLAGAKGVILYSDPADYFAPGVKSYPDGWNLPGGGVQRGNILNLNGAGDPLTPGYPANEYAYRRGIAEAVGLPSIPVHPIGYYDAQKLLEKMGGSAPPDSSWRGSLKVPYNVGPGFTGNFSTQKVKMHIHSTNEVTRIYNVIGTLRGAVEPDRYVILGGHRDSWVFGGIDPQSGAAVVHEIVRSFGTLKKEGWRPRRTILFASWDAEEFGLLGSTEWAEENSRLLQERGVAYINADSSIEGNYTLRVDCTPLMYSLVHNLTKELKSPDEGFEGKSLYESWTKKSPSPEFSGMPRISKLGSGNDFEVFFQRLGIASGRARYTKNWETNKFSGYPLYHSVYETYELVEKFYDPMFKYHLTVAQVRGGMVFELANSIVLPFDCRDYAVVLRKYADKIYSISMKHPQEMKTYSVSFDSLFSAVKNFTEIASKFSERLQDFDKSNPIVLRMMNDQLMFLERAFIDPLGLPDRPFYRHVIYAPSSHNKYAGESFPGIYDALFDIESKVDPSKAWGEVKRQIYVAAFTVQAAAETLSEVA
Protocol: For binding studies and in vivo experiments LNCaP cells (metastatic lesion of human prostatic adenocarcinoma, ATCC CRL-1740) were cultured in RPMI medium supplemented with 10% fetal calf serum and Glutamax (PAA, Austria). During cell culture, cells were grown at 37° C. in an incubator with humidified air, equilibrated with 5% CO2. The cells were harvested using trypsin-ethylenediaminetetraacetic acid (trypsin-1.5 EDTA; 0.25% trypsin, 0.02% EDTA, all from PAA, Austria) and washed with PBS.
The competitive cell binding assay and internalization experiments were performed as described previously (Eder et al. Bioconjugate Chem. 2012, 23 (4), 688-697). Briefly, the respective cells (10^5 per well) were incubated with the radioligand (^68Ga-labeled [Glu-urea-Lys(Ahx)]2-HBED-CC (Schafer et al. EJNMMI Research 2012, 2:23 doi:10.1186/2191-219X-2-23))) in the presence of 12 different concentrations of analyte (0-5000 nM, 100 μL/well). After incubation, washing was carried out using a multiscreen vacuum manifold (Millipore, Billerica, Mass.). Cell-bound radioactivity was measured using a gamma counter (Packard Cobra II, GMI, Minnesota, USA). The 50% inhibitory concentration (IC50) was calculated by fitting the data using a nonlinear regression algorithm (GraphPad Software). Experiments were performed three times. Reference is made to Table A below.

LNCaP cells = assay: Specific cell uptake and internalization in LNCaP cells; format: cell-based, human; conditions: for Cell surface / Internalised: 30 nM radiolabeled compound, 45 min, 37° C., specific (PMPA block); for Internalized fraction: (Internalized activity/total activity)*100
Protocol: During cell culture, cells were grown at 37° C. in an incubator with humidified air, equilibrated with 5% CO2. […] To determine the specific cell uptake and internalization, 10^5 cells were seeded in poly-L-lysine coated 24-well cell culture plates 24 h before incubation. After washing, the cells were incubated with 30 nM of the radiolabeled compounds for 45 min at 37° C. […] Cellular uptake was terminated by washing 3 times with 1 mL of ice-cold PBS. […] The cells were washed with 1 mL of ice-cold PBS and lysed using 0.3 N NaOH (0.5 mL). The surface-bound and the internalized fractions were measured in a gamma counter. The cell uptake was calculated as percent of the initially added radioactivity bound to 10^5 cells [% ID/10^5 cells].

IC50 (PSMA) [nM]	Compound	Cell surface (LNCaP cells) [% ID/10^5 cells]	Internalised (LNCaP cells) [% ID/10^5 cells]	Internalized fraction (LNCaP cells) [%]
	O=C(O)CC[C@@H](NC(=O)N[C@H](CCCCNC(=O)[C@@H](Cc1ccc2ccccc2c1)NC(=O)c1ccc(CNC(=O)[C@@H](CCC(=O)O)NC(=O)c2ccnc([18F])c2)cc1)C(=O)O)C(=O)O [PSMA-1015, (Glu)-(Urea)-(Lys)-(2-Nal)-(Bn)-(Glu)-FN]	14.3	6.0	30
	O=C(O)CCC(NC(=O)NC(CCCCNC(=O)C(Cc1ccc2ccccc2c1)NC(=O)c1ccc(CNC(=O)C(CCC(=O)O)NC(=O)C(CCC(=O)O)NC(=O)c2ccc([18F])nc2)cc1)C(=O)O)C(=O)O [PSMA-1023, (Glu)-(Urea)-(Lys)-(2-Nal)-(Bn)-(D-Glu)-(D-Glu)-FN]	6.5	3.2	33
	O=C(O)CCC(NC(=O)NC(CCCCNC(=O)C(Cc1ccc2ccccc2c1)NC(=O)CCC(NC(=O)C(CCC(=O)O)NC(=O)C(CCC(=O)O)NC(=O)c1ccc([18F])nc1)C(=O)O)C(=O)O)C(=O)O (stereo not shown) [PSMA-1020, (Glu)-(Urea)-(Lys)-(2-Nal)-(γGlu)-(Glu)-(Glu)-FN]	6.8	1.5	18
	O=C(O)CCC(NC(=O)NC(CCCCNC(=O)C(Cc1ccc2ccccc2c1)NC(=O)CCC(NC(=O)CCC(NC(=O)c1ccc([18F])nc1)C(=O)O)C(=O)O)C(=O)O)C(=O)O (stereo not shown) [PSMA-1022, (Glu)-(Urea)-(Lys)-(2-Nal)-(γGlu)-(γGlu)-FN]	3.5	1.0	22
	O=C(O)CCC(NC(=O)NC(CCCCNC(=O)C(Cc1ccc2ccccc2c1)NC(=O)c1ccc(CNC(=O)C(CNC(=O)C(CNC(=O)c2ccc([18F])nc2)S(=O)(=O)O)S(=O)(=O)O)cc1)C(=O)O)C(=O)O (stereo not shown) [PSMA-1027, (Glu)-(Urea)-(Lys)-(2-Nal)-(Bn)-(Sala)-(Sala)-FN]	0.9	1.4	60
	O=C(O)CCC(NC(=O)NC(CCCCNC(=O)C(Cc1ccc2ccccc2c1)NC(=O)c1ccc(CNC(=O)C(CCC(=O)O)NC(=O)C(CCC(=O)O)NC(=O)c2ccc([18F])nc2)cc1)C(=O)O)C(=O)O [PSMA-1024, (Glu)-(Urea)-(Lys)-(2-Nal)-(Bn)-(D-Glu)-(Glu)-FN]	5.3	2.1	28
	O=C(O)CCC(NC(=O)NC(CCCCNC(=O)C(Cc1ccc2ccccc2c1)NC(=O)C1CCC(CNC(=O)C(CCC(=O)O)NC(=O)C(CCC(=O)O)NC(=O)c2ccc([18F])nc2)CC1)C(=O)O)C(=O)O (stereo not shown) [PSMA-1019, (Glu)-(Urea)-(Lys)-(2-Nal)-(Chx)-(Glu)-(Glu)-FN]	5.5	1.9	26
	O=C(O)CCC(NC(=O)NC(CCCCNC(=O)C(Cc1ccc2ccccc2c1)NC(=O)c1ccc(CNC(=O)C(CCC(=O)O)NC(=O)C(CCC(=O)O)NC(=O)C(CCC(=O)O)NC(=O)c2ccc([18F])nc2)cc1)C(=O)O)C(=O)O (stereo not shown) [PSMA-1018, (Glu)-(Urea)-(Lys)-(2-Nal)-(Bn)-(Glu)-(Glu)-(Glu)-FN]	1.1	0.9	45
7	O=C(O)CCC(NC(=O)NC(CCCCNC(=O)C(Cc1ccc2ccccc2c1)NC(=O)c1ccc(CNC(=O)C(CNC(=O)C(CNC(=O)c2ccc(F)nc2)S(=O)(=O)O)S(=O)(=O)O)cc1)C(=O)O)C(=O)O (stereo not shown) [PSMA-1027, (Glu)-(Urea)-(Lys)-(2-Nal)-(Bn)-(Sala)-(Sala)-FN]			
8	O=C(O)CCC(NC(=O)NC(CCCCNC(=O)C(Cc1ccc2ccccc2c1)NC(=O)c1ccc(CNC(=O)C(CCC(=O)O)NC(=O)C(CCC(=O)O)NC(=O)c2ccc(F)nc2)cc1)C(=O)O)C(=O)O [PSMA-1023, (Glu)-(Urea)-(Lys)-(2-Nal)-(Bn)-(D-Glu)-(D-Glu)-FN]			
4	O=C(O)CC[C@@H](NC(=O)N[C@H](CCCCNC(=O)[C@@H](Cc1ccc2ccccc2c1)NC(=O)c1ccc(CNC(=O)[C@@H](CCC(=O)O)NC(=O)c2ccnc(F)c2)cc1)C(=O)O)C(=O)O [PSMA-1015, (Glu)-(Urea)-(Lys)-(2-Nal)-(Bn)-(Glu)-FN]			
12	O=C(O)CCC(NC(=O)NC(CCCCNC(=O)C(Cc1ccc2ccccc2c1)NC(=O)C1CCC(CNC(=O)C(CCC(=O)O)NC(=O)C(CCC(=O)O)NC(=O)c2ccc(F)nc2)CC1)C(=O)O)C(=O)O (stereo not shown) [PSMA-1019, (Glu)-(Urea)-(Lys)-(2-Nal)-(Chx)-(Glu)-(Glu)-FN]			
	O=C(O)CC[C@H](NC(=O)N[C@@H](CCCCNC(=O)[C@@H](Cc1ccc2ccccc2c1)NC(=O)CC[C@@H](NC(=O)[C@@H](CCC(=O)O)NC(=O)c1ccnc([18F])c1)C(=O)O)C(=O)O)C(=O)O [PSMA-1012, (Glu)-(Urea)-(Lys)-(2-Naphthylalanine)-(γGlu)-(Glu)-FN]	6.9	2.7	28
8	O=C(O)CCC(NC(=O)NC(CCCCNC(=O)C(Cc1ccc2ccccc2c1)NC(=O)CCC(NC(=O)CCC(NC(=O)c1ccc(F)nc1)C(=O)O)C(=O)O)C(=O)O)C(=O)O (stereo not shown) [PSMA-1022, (Glu)-(Urea)-(Lys)-(2-Nal)-(γGlu)-(γGlu)-FN]			
8	O=C(O)CCC(NC(=O)NC(CCCCNC(=O)C(Cc1ccc2ccccc2c1)NC(=O)c1ccc(CNC(=O)C(CCC(=O)O)NC(=O)C(CCC(=O)O)NC(=O)c2ccc(F)nc2)cc1)C(=O)O)C(=O)O [PSMA-1024, (Glu)-(Urea)-(Lys)-(2-Nal)-(Bn)-(D-Glu)-(Glu)-FN]			
14	O=C(O)CCC(NC(=O)NC(CCCCNC(=O)C(Cc1ccc2ccccc2c1)NC(=O)c1ccc(CNC(=O)C(CNC(=O)c2ccc(F)nc2)S(=O)(=O)O)cc1)C(=O)O)C(=O)O (stereo not shown) [PSMA-1026, (Glu)-(Urea)-(Lys)-(2-Nal)-(Bn)-(Sala)-FN]			
5	O=C(O)CCC(NC(=O)NC(CCCCNC(=O)C(Cc1ccc2ccccc2c1)NC(=O)c1ccc(CNC(=O)C(CCC(=O)O)NC(=O)C(CCC(=O)O)NC(=O)c2ccc(F)nc2)cc1)C(=O)O)C(=O)O (stereo not shown) [PSMA-1007, (Glu)-(Urea)-(Lys)-(2-Nal)-(Bn)-(Glu)-(Glu)-FN]			
	O=C(O)CCC(NC(=O)NC(CCCCNC(=O)C(Cc1ccc2ccccc2c1)NC(=O)c1ccc(CNC(=O)C(CNC(=O)c2ccc([18F])nc2)S(=O)(=O)O)cc1)C(=O)O)C(=O)O (stereo not shown) [PSMA-1026, (Glu)-(Urea)-(Lys)-(2-Nal)-(Bn)-(Sala)-FN]	1.3	1.3	50
9	O=C(O)CCC(NC(=O)NC(CCCCNC(=O)C(Cc1ccc2ccccc2c1)NC(=O)CCC(NC(=O)C(CCC(=O)O)NC(=O)C(CCC(=O)O)NC(=O)c1ccc(F)nc1)C(=O)O)C(=O)O)C(=O)O (stereo not shown) [PSMA-1020, (Glu)-(Urea)-(Lys)-(2-Nal)-(γGlu)-(Glu)-(Glu)-FN]			
	O=C(O)CC[C@@H](NC(=O)N[C@H](CCCCNC(=O)[C@@H](Cc1ccc2ccccc2c1)NC(=O)[C@@H](CCC(=O)O)NC(=O)[C@@H](CCC(=O)O)NC(=O)c1ccnc([18F])c1)C(=O)O)C(=O)O [PSMA-1011, (Glu)-(Urea)-(Lys)-(2-Naphthylalanine)-(Glu)-(Glu)-FN]	4.1	0.7	15
14	O=C(O)CCC(NC(=O)NC(CCCCNC(=O)C(Cc1ccc2ccccc2c1)NC(=O)c1ccc(CNC(=O)C(CCC(=O)O)NC(=O)C(CCC(=O)O)NC(=O)C(CCC(=O)O)NC(=O)c2ccc(F)nc2)cc1)C(=O)O)C(=O)O (stereo not shown) [PSMA-1018, (Glu)-(Urea)-(Lys)-(2-Nal)-(Bn)-(Glu)-(Glu)-(Glu)-FN] ({Nicotinoyl(6-F)}-EEE[4Amb][2Nal]-X1; configuration not given here)			

Compound	IC50 (PSMA) [nM]	Cell surface (LNCaP cells) [% ID/10^5 cells]	Internalised (LNCaP cells) [% ID/10^5 cells]	Internalized fraction (LNCaP cells) [%]
O=C(O)CC[C@@H](NC(=O)N[C@H](CCCCNC(=O)[C@@H](Cc1ccc2ccccc2c1)NC(=O)[C@@H](CCC(=O)O)NC(=O)[C@@H](CCC(=O)O)NC(=O)c1ccnc(F)c1)C(=O)O)C(=O)O [PSMA-1011, (Glu)-(Urea)-(Lys)-(2-Naphthylalanine)-(Glu)-(Glu)-FN]	7			
(Glu)-(Urea)-(Lys)-(2-Nal)-(Bn)-(Gla)-FN [PSMA-1025]	9	4.3	3.1	42
O=C(O)CC[C@H](NC(=O)N[C@@H](CCCCNC(=O)[C@@H](Cc1ccc2ccccc2c1)NC(=O)CC[C@@H](NC(=O)[C@@H](CCC(=O)O)NC(=O)c1ccnc(F)c1)C(=O)O)C(=O)O)C(=O)O [PSMA-1012, (Glu)-(Urea)-(Lys)-(2-Naphthylalanine)-(γGlu)-(Glu)-FN]	7			
